From patent EP0598515A1, “Method for herbicidal activity-enhancing, activity-enhanced herbicidal composition and activity-enhancing composition” (ISHIHARA SANGYO KAISHA LTD., priority 1992, dated 1994)
Values joined by “and” are separate entries in the source; they are usually repeats but may differ in a detail not shown here. Equal values may be shown once.

System: Crabgrass (Digitaria sanginalis L.)
Experiment: Test Example 5: pot test with kinds of vegetable oil
Type: in vivo
Conditions: Example 7 water dispersible granules, 0.2% by volume Frigate + 0.4% by volume vegetable oil (90 parts oil, 10 parts Geronol VO/278), 23 days after treatment, duplicate
Description: Crabgrass (Digitaria sanginalis L.) seeds were sown in 1/1,000,000-hectare pots filled with upland soil and arranged in a duplicate system. When the crabgrass plants grew to a 3.5- to 4.0-leaf stage, water dispersible granules obtained in Example 7 described hereinbefore was diluted with 200 liters/hectare of water containing 0.2% by volume of Frigate and 0.4% by volume of a vegetable oil which was previously prepared by mixing with a predetermined amount of Geronol VO/278 (trade name) and was applied foliarly to the plants with a small spray gun.
Twenty three days after treatment, the growth inhibition of the plants was evaluated with visual observation in the same manner as in Test Example 1 and are shown in Table 5.
In the test, a vegetable oil, a fatty acid originated therefrom and an alkylester of the fatty acid were used as the vegetable oil and which are each of mixture of 10 parts by weight of Geronol VO/278 and 90 parts by weight of the following vegetable oil, fatty acids originated from vegetable oils and alkylesters of fatty acids. • (a) corn oil • (b) fatty acid originated from corn oil (prepared by hydrolysis of corn oil) • (c) methylester of (b) • (d) methylester of fatty acid originated from cottonseed oil • (e) methylester of fatty acid originated from rapeseed oil • (f) methyl oleate (trade name: ADJ-100) • (g) butyl oleate (trial product No. 93091; produced by Takemoto Oils and Fats) TABLE 5

SMILES | Growth Inhibition (%) of Crabgrass (Compound A 2.5 g/ha) [%] | Growth Inhibition (%) of Crabgrass (Compound A 5 g/ha)
CCCCCCCC/C=C\CCCCCCCC(=O)OCCCC [g, butyl oleate] | 70 | 95% and 80%
CCCCCCCC/C=C\CCCCCCCC(=O)OC [f, methyl oleate] | 60 | 90%
